Test results from US20110053897A1 (IRM LLC, priority 2009, published 2011).

Each compound was assayed against T1, Syk kinase (Homo sapiens, UniProt P43405) (assay: Syk kinase inhibition, Caliper LabChip off-chip mobility-shift kinase assay). Details: Caliper LabChip assay; read-out: Syk Enzyme IC50.
T1 construct: purchased
Format: biochemical
Description: Compounds of the examples and Table 1 provided herein were assayed to measure their capacity to inhibit Syk kinase.
Compounds of the examples and Table 1 provided herein were assessed for their ability to inhibit Syk kinase by utilizing Caliper Life Sciences' proprietary LabChip™ technology. The off-chip incubation mobility-shift kinase assay uses a microfluidic chip to measure the conversion of a fluorescent peptide substrate to a phosphorylated product. The reaction mixture, from a microtiter plate well, is introduced through a capillary sipper onto the chip, where the nonphosphorylated substrate and phosphorylated product are separated by electrophoresis and detected via laser induced fluorescence. […] The phosphorylated product migrates through the chip faster than the non-phosphorylated substrate, and signals from the two forms of the peptide appear as distinct peaks. Caliper's data analysis software (HTSWA) determines peak heights, from which the ratio of product to the peak sum P/(P+S) and percent (%) conversion is calculated. This value is used to compare compound wells to control wells present on the plate, and thereby determine the % inhibition values for the compound. The formula used to calculate % inhibition is as follows, where C100% is the average % conversion of the 100% activity wells and Co% is the average % conversion of the 0% activity wells: (1−(% conversionofsample−C0%)/(C100%−C0%))*100.
Compounds (10 mM stocks in 100% DMSO) are diluted to a final concentration of 5 μM for single point inhibition experiments, and a series dilution of 10, 3, 1, 0.3, 0.1, 0.03, 0.01, 0.003, 0.001, 0.0003, 0.0001, and 0.00003 μM were made for IC50 determination. Generally, 12 μL of enzyme buffer containing purified kinase (various amount; various suppliers), 100 mM HEPES, pH 7.5, 1 mM DTT (Calbiochem, 2333153), 10 mM MgCl2 (Sigma, M-1028) or 10 mM MnCl2 (Sigma, M-1787) (assay specific), and 0.002% Brij-35 (Sigma, B4184) are added to each well. Compound and enzyme are allowed to pre-incubate for 15 minutes. 12 μL of peptide/ATP buffer containing 100 mM HEPES, pH 7.5, 1.5 μM fluorescein-labeled peptide (specific to kinase of interest), ATP (at KM apparent, Sigma, A9187), and 0.002% Brij-35 is then added to each well to initiate the reaction. The final concentration of DMSO in the well is 4%. Generally, reactions are incubated for 1 to 1.5 hours at room temperature to obtain adequate conversion of peptide to phosphorylated product in the linear range of the reaction. Reactions are terminated with the addition of 45 μL of Stop Buffer (containing 20 mM EDTA). Plates are then read on the LabChip 3000 using a 12-sipper LabChip. % conversion values and % inhibition values are obtained as provided and IC50 curves of compounds are generated using GraphPad Prism Version 4 or 5.01, or XLfit Version 4.3.2. When using GraphPad Prism, a nonlinear curve fit using the sigmoidal dose response—variable slope fit was used to graph IC50 curves and determine IC50 values and hillslopes. When using XLfit, Fit Model 205 (4-Parameter Logistic Model) is used to generate and fit the IC50 curve.

| IC50 [nM] | Compound |
| --- | --- |
| 164 | CC(C)(C)Nc1nc(Nc2cnccn2)cc2ccn(Cc3cccnc3)c(=O)c12 [compound 1020] |
| 60 | COc1ncc(-c2cc(Nc3cc4ccn(CCO)c(=O)c4c(NC(C)(C)C)n3)ncn2)cn1 [compound 637] |
| 82 | CC(C)(C)Nc1nc(Nc2cc(-c3nc(CO)cs3)ccn2)cc2ccn(CCO)c(=O)c12 [compound 843] |
| 25 | CC(C)(C)Nc1nc(Nc2nccc(O)n2)cc2ccn(CCO)c(=O)c12 [compound 826] |
| 106 | CCn1ccc2cc(Nc3cnccn3)nc(NC3(CO)CC3)c2c1=O [compound 797] |
| 9 | C[C@@H](CO)Oc1cc(Nc2cc3ccn(C[C@H](O)CO)c(=O)c3c(NC(C)(C)C)n2)ncn1 [compound 643, 8-(tert-butylamino)-2-((S)-2,3-dihydroxypropyl)-6-(6-((S)-1-hydroxypropan-2-yloxy)pyrimidin-4-ylamino)-2,7-naphthyridin-1(2H)-one] |
| 216 | CCn1ccc2cc(Nc3cnccn3)nc(N[C@H](CO)C(C)(C)C)c2c1=O [compound 807] |
| 137 | [2H]C([2H])([2H])n1ccc2cc(Nc3cc(C)c(Cl)cn3)nc(NC(C)(C)CO)c2c1=O [compound 777] |
| 14 | CCn1ccc2cc(-c3cnc(N)nc3)nc(NC(C)(C)CCO)c2c1=O [compound 1037] |
| 21 | [2H]C([2H])([2H])n1ccc2cc(-c3cnc(N)nc3)nc(N[C@H]3CC[C@@H](O)CC3)c2c1=O [compound 1026] |
| 5 | CCn1ccc2cc(-c3cnc(N)nc3)nc(N[C@H]3CC[C@@H](CO)C3)c2c1=O [compound 913] |
| 27 | Cc1nc(-c2ccnc(Nc3cc4ccn(CCO)c(=O)c4c(NC(C)(C)C)n3)c2)no1 [compound 873] |
| 179 | CCn1ccc2cc(Nc3cnccn3)nc(NC(C)(C)CCO)c2c1=O [compound 783] |
| < 1.01 | CCn1ccc2cc(-c3cnc(N)nc3)nc(NC3(CO)CCC3)c2c1=O [compound 905] |
| 44 | CC(C)(O)Cn1ccc2cc(-c3cnc(N)nc3)nc(NC(C)(C)C)c2c1=O [compound 928] |

More lines, now with the values behind:

| Compound | IC50 [nM] |
| --- | --- |
| CC1(Nc2nc(Nc3cc(C4(O)COC4)ccn3)cc3ccn(CC(N)=O)c(=O)c23)CC1 [compound 617] | 64 |
| O=c1c2c(N[C@H]3CC[C@@H](O)CC3)nc(Nc3cnccn3)cc2ccn1CCCO [compound 948] | 18 |
| COCC(COC)n1ccc2cc(Nc3cnccn3)nc(NC(C)(C)C)c2c1=O [compound 937] | 12 |
| CC(C)n1ccc2cc(Nc3c[n+]([O-])ccn3)nc(N[C@H]3CC[C@@H](O)C3)c2c1=O [compound 1017] | 25 |
| Cn1ccc2cc(Nc3nccc(O)n3)nc(NC3CCC3)c2c1=O [compound 800] | 9 |
| Cc1ccnc(Nc2cc3ccn(C(C)C)c(=O)c3c(N[C@H]3CC[C@@H](CO)C3)n2)c1 [compound 987] | 60 |

Same assay, conditions: read-out: Syk Enzyme IC50

| IC50 [nM] | Compound |
| --- | --- |
| 120 | CCn1ccc2cc(Nc3cc(C)ccn3)nc(NC[C@H]3CC[C@H](O)C3)c2c1=O [compound 410] |
| 48.6 | CCn1ccc2cc(Nc3cnccn3)nc(N[C@@H]3CC[C@H](O)C3)c2c1=O [compound 427] |
| 271 | O=c1c2c(NCC(F)(F)F)nc(Nc3cc(Cl)ccn3)cc2ccn1CCO [compound 593] |
| 301 | CCn1ccc2cc(Nc3cnccn3)nc(N[C@H]3CCCC[C@@H]3O)c2c1=O (racemic) [compound 407] |
| 11.4 | CC1(Nc2nc(Nc3cnccn3)cc3ccn(CCO)c(=O)c23)CCC1 [compound 458] |
| 302 | CC[C@H](CO)Nc1nc(Nc2cnccn2)cc2ccn(CC)c(=O)c12 [compound 457] |
| 203 | CC(CO)Nc1nc(-c2cnc(N)nc2)cc2cc[nH]c(=O)c12 (centres unmarked) [compound 183] |
| 54 | Cn1ccc2cc(Nc3cnccn3)nc(NC(C)(C)C)c2c1=O [compound 463] |
| 128 | CCn1ccc2cc(Nc3cnccn3)nc(N[C@H]3CCCC[C@H]3O)c2c1=O (racemic) [compound 409] |

Continued, compound first:

| Compound | IC50 [nM] |
| --- | --- |
| O=c1[nH]ccc2cc(-c3cnccn3)nc(Nc3ccc4c(c3)C3CNCC4C3)c12 (centres unmarked) [compound 98] | 1520 |
| O=c1[nH]ccc2cc(Nc3ccccn3)nc(NC3CCCC3)c12 [compound 296] | 153 |
| COc1cncc(-c2cc3cc[nH]c(=O)c3c(Nc3ccc(C4CCN(CC(C)C#N)CC4)c(C)c3)n2)n1 (centres unmarked) [compound 178] | 61 |
| Cc1n[nH]c2ncc(-c3cc4cc[nH]c(=O)c4c(Nc4ccc(N5CCOCC5)cc4)n3)cc12 [compound 192] | 263 |
| COc1cncc(-c2cc3cc[nH]c(=O)c3c(Nc3ccc(C4CN(C(C)=O)C4)cc3)n2)n1 [compound 149] | 24 |
| COc1cncc(-c2cc3cc[nH]c(=O)c3c(Nc3ccc(C4=CCSCC4)c(C)c3)n2)n1 [compound 12] | 3430 |
| Nc1nccc(-c2cc3cc[nH]c(=O)c3c(Nc3ccc(N4CCOCC4)cc3)n2)n1 [compound 53] | 494 |
| Cc1ccnc(Nc2cc3ccn(CCO)c(=O)c3c(Nc3ccc(S(C)(=O)=O)cc3)n2)c1 [compound 404] | 63.4 |
| CNS(=O)(=O)c1ccc(Nc2nc(Nc3cc(C)ccn3)cc3ccn(C)c(=O)c23)cc1 [compound 349] | 414 |
| O=c1[nH]ccc2cc(Nc3cc(CO)ccn3)nc(NC3CC3)c12 [compound 518] | 59 |
| [2H]C([2H])([2H])n1ccc2cc(Nc3cc(C)ccn3)nc(N[C@H]3CC[C@@H](O)CC3)c2c1=O [compound 378] | 20 |
| CCc1ccnc(Nc2cc3cc[nH]c(=O)c3c(NC3CC3)n2)c1 [compound 521] | 131 |
| Cc1nc(N)ncc1-c1cc2cc[nH]c(=O)c2c(Nc2ccc([C@H]3CC[C@H](N4CCOCC4)CC3)cc2)n1 [compound 101] | 668 |
| Cc1ccnc(Nc2cc3ccn(C)c(=O)c3c(N[C@H]3CCC[C@H]3O)n2)c1 (racemic) [compound 324] | 98 |
| Cc1ccnc(Nc2cc3cc[nH]c(=O)c3c(NC[C@@H](O)c3cccc(Cl)c3)n2)c1 [compound 539] | 915 |
| COCCN1CCC(c2cc3cc[nH]c(=O)c3c(Nc3ccc(N4CCOCC4)cc3)n2)CC1 [compound 9] | 299 |
| Cc1ccnc(Nc2cc3ccn(CCN(C)C)c(=O)c3c(N[C@H]3CC[C@@H](O)CC3)n2)c1 [compound 386] | 49 |
| C[C@@H]1CN(c2ccc(Nc3nc(-c4cncnc4)cc4cc[nH]c(=O)c34)cn2)C[C@H](C)O1 [compound 18] | 245 |
| [2H]C([2H])([2H])n1ccc2cc(Nc3cnccn3)nc(N[C@H]3CC[C@@H](O)CC3)c2c1=O [compound 377] | 34 |
| COCCn1ccc2cc(Nc3cc(C)ccn3)nc(NC(C)C)c2c1=O [compound 314] | 237 |
| C[C@@H]1CN(c2ccc(Nc3nc(CCC(=O)O)cc4cc[nH]c(=O)c34)cn2)CCO1 [compound 243] | 307 |
| CNC(=O)c1ccc(Nc2nc(Nc3cnccn3)cc3ccn(C)c(=O)c23)cc1 [compound 343] | 333 |
| COc1cncc(-c2cc3cc[nH]c(=O)c3c(Nc3ccc(CCCN4CCOCC4)cc3)n2)n1 [compound 40] | 95 |
| Cc1ccnc(Nc2cc3cc[nH]c(=O)c3c(NCC(F)(F)F)n2)c1 [compound 516] | 152 |
| Cc1ccnc(Nc2cc3cc[nH]c(=O)c3c(NC(C)C)n2)c1 [compound 490] | 32 |
| COc1cncc(-c2cc3cc[nH]c(=O)c3c(Nc3ccc(C4CCN(C5CCCC5)CC4)c(C)c3)n2)n1 [compound 62] | 11 |
